In US6967196B1, “Sulfonamide compounds and uses thereof” (Bristol-Myers Squibb Company, priority 1999, dated 2005):
Counter-ions that a name gives are not always drawn.

Test system: amyloid β production in transfected H4 (human neuroglioma) cells stably expressing APP constructs
Experiment: In vitro cell-based assay of inhibitors of amyloid β production (ELISA)
Conditions: Homo sapiens, 16 h, transfected H4 cells expressing APP, approximately 16 hours incubation, amyloid β in medium by ELISA; read-out: ACTIVITY (IC50, inhibition of amyloid β production)
Method in brief: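 H4 neuroglioma cells stably expressing APP constructs were dosed in fresh medium, screened initially at 10-100 μM, and incubated ~16 h. Medium Aβ was measured by ELISA with C-terminal-epitope capture and N-terminal detection antibodies, quantified from a standard curve, with dose-response testing of actives.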

| IC50 [nM] | Compound |
| --- | --- |
| > 10000 | C[C@H](CCCOC(=O)NCCn1ccnc1)N(c1cc(Cl)ccc1CO)S(=O)(=O)c1ccc(Cl)cc1 [Example 1292] |
| > 500 | C[C@H](C(=O)N(CCN)c1ccccc1)N(c1cc(Cl)ccc1F)S(=O)(=O)c1ccc(Cl)cc1 [Example 1329] |
| > 500 | C[C@H](C(=O)NCc1c(F)cccc1F)N(c1cc(Cl)ccc1F)S(=O)(=O)c1ccc(Cl)cc1 [Example 1327] |
| > 500 | C[C@H](C(=O)N[C@H](C)C1CCCCC1)N(c1cc(Cl)ccc1F)S(=O)(=O)c1ccc(Cl)cc1 [Example 1351] |

Same assay, conditions: Homo sapiens, 16 h, transfected H4 cells stably expressing APP constructs; approximately 16 hours incubation; amyloid β in medium by ELISA; read-out: ACTIVITY (IC50, inhibition of amyloid β production)

| IC50 [nM] | Compound |
| --- | --- |
| ≤ 25 | C[C@H](COC(=O)N1CCCC1)N(c1cc(F)ccc1F)S(=O)(=O)c1ccc(Cl)cc1 [Example 1238, 4-Chloro-N-(2,5-difluorophenyl)-N-[2-[[[pyrrolidin-1-yl]carbonyl]oxy]-R-1-methylethyl]benzenesulfonamide] |
| ≤ 25 | CCNS(=O)(=O)CCC[C@@H](C)N(c1cc(Cl)ccc1Cl)S(=O)(=O)c1ccc(Cl)cc1 [Example 1208, 4-chloro-N-[2,5-dichlorophenyl]-N-[4-[(ethylamino)sulfonyl]-1(R)-methylbutyl]benzenesulfonamide] |
| ≤ 25 | CNS(=O)(=O)CCC[C@@H](C)N(c1cc(Cl)ccc1F)S(=O)(=O)c1ccc(Cl)cc1 [Example 1203, 4-chloro-N-(5-chloro-2-fluorophenyl)-N-[4-[(methylamino)sulfonyl]-1(R)-methylbutyl]benzenesulfonamide] |

Same assay, conditions: Homo sapiens, 16 h, transfected H4 cells stably expressing APP; approx. 16 h incubation; amyloid β in medium by ELISA; read-out: ACTIVITY (IC50, inhibition of amyloid β production)

| IC50 [nM] | Compound |
| --- | --- |
| 100 to 500 | O=S(=O)(c1ccc(Cl)cc1)N(Cc1ccccc1OCCCN1CCCCC1)c1ccc(Cl)cc1Cl [Example 706, 4-chloro-N-(2,4-dichlorophenyl)-N-{2-[3-(1-piperidinyl)propoxy]benzyl}benzenesulfonamide hydrochloride] |

Same assay, conditions: Homo sapiens, 16 h, transfected H4 cells stably expressing APP; approximately 16 hours incubation; amyloid β in medium by ELISA; Table B; read-out: ACTIVITY (IC50, inhibition of amyloid β production)

| IC50 [nM] | Compound |
| --- | --- |
| 50 to 100 | C[C@H](c1ccccc1Cn1ncnn1)N(c1cc(F)ccc1F)S(=O)(=O)c1ccc(Cl)cc1 [Example 396] |
| 50 to 100 | CC(c1ccccc1OCCN(C)C(=O)N(C)C)N(c1cc(F)ccc1F)S(=O)(=O)c1ccc(Cl)cc1 (stereo not shown) [Example 397, 4-chloro-N-(2,5-difluorophenyl)-N-[1-(2-{2-[[(dimethylamino)carbonyl](methyl)amino]ethoxy}phenyl)ethyl]benzenesulfonamide] |

Same assay, conditions: Homo sapiens, 16 h, transfected H4 cells stably expressing APP; approximately 16 hours incubation; amyloid β in medium by ELISA; read-out: ACTIVITY (IC50, inhibition of amyloid β production)

| IC50 [nM] | Compound |
| --- | --- |
| > 500 | COc1cc(C(=O)N2CCCCC2CCOc2ccccc2CN(c2cc(F)ccc2F)S(=O)(=O)c2ccc(Cl)cc2)cc(OC)c1OC (stereo not shown) [Example 938, 4-chloro-N-(2,5-difluorophenyl)-N-(2-{2-[1-(3,4,5-trimethoxybenzoyl)-2-piperidinyl]ethoxy}benzyl)benzenesulfonamide] |
| > 500 | O=S(=O)(c1ccc(Cl)cc1)N(Cc1ccccc1OCCCBr)c1ccccc1 [Example 1039, N-[2-(3-bromopropoxy)benzyl]-4-chloro-N-phenylbenzenesulfonamide] |
| > 500 | O=C(c1ccc(I)cc1)N1CCCCC1CCOc1ccccc1CN(c1cc(F)ccc1F)S(=O)(=O)c1ccc(Cl)cc1 (stereo not shown) [Example 901, 4-chloro-N-(2,5-difluorophenyl)-N-(2-{2-[1-(4-iodobenzoyl)-2-piperidinyl]ethoxy}benzyl)benzenesulfonamide] |
| 100 to 500 | O=S(=O)(c1ccc(Cl)cc1)N(Cc1ccccc1OCCCN1CCCCC1)CC1CCC1 [Example 827, 4-chloro-N-(cyclobutylmethyl)-N-{2-[3-(1-piperidinyl)propoxy]benzyl}benzenesulfonamide hydrochloride] |
| > 500 | CC(C)CCCN(Cc1ccccc1OCCCN1CCCCC1)S(=O)(=O)c1ccc(Cl)cc1 [Example 951, 4-chloro-N-(4-methylpentyl)-N-{2-[3-(1-piperidinyl)propoxy]benzyl}benzenesulfonamide hydrochloride] |
| > 500 | O=C(c1ccccc1Br)N1CCCCC1CCOc1ccccc1CN(c1cc(F)ccc1F)S(=O)(=O)c1ccc(Cl)cc1 (stereo not shown) [Example 942, N-(2-{2-[1-(2-bromobenzoyl)-2-piperidinyl]ethoxy}benzyl)-4-chloro-N-(2,5-difluorophenyl)benzenesulfonamide] |
| > 500 | O=S(=O)(c1ccc(Cl)cc1)N(Cc1ccccc1OCCC1CCCN1)c1ccccc1 (stereo not shown) [Example 963, 4-chloro-N-phenyl-N-{2-[2-(2-pyrrolidinyl)ethoxy]benzyl}benzenesulfonamide hydrochloride] |

Same assay, conditions: transfected H4 cells stably expressing APP constructs; approximately 16 hours incubation; amyloid β in medium by ELISA; read-out: ACTIVITY (IC50, inhibition of amyloid β production)

| Compound | IC50 [nM] |
| --- | --- |
| (2E)-1-N-(benzyloxy)-3-[2-({[(4-chlorophenyl)sulfonyl]anilino}methyl)phenyl]-2-propenamide hydrochloride [Example 1093] | > 10000 |
| C[C@H](COC(=O)NCCCn1ccnc1)N(c1cc(Cl)ccc1Cl)S(=O)(=O)c1ccc(Cl)cc1 [Example 1240, 4-Chloro-N-(2,5-dichlorophenyl)-N-[2-[[N′-[3-(1H-imidazol-1-yl)propylamino]carbonyl]oxy]-(R)-1-methylethyl]benzenesulfonamide] | ≤ 25 |

Same assay, conditions: transfected H4 cells stably expressing APP; approx. 16 h incubation; amyloid β in medium by ELISA; read-out: ACTIVITY (IC50, inhibition of amyloid β production)

| IC50 [nM] | Compound |
| --- | --- |
| 100 to 500 | N-{3-[2-(1-{[(4-chlorophenyl)sulfonyl]-2,5-difluoroanilino}ethyl)phenoxy]propyl}-2,3,4-trifluoro-N-methylbenzamide [Example 670] |
| 100 to 500 | N-{3-[2-(1-{[(4-chlorophenyl)sulfonyl]-2,5-difluoroanilino}ethyl)phenoxy]propyl}-3-nitrobenzamide [Example 723] |
| 100 to 500 | N-{3-[2-(1-{[(4-chlorophenyl)sulfonyl]-2,5-difluoroanilino}ethyl)phenoxy]propyl}-2,3,4,5,6-pentafluorobenzamide [Example 742] |
| 100 to 500 | S-ethyl-3-[2-({[(4-chlorophenyl)sulfonyl]-2,5-difluoroanilino}methyl)phenoxy]propyl(methyl)thiocarbamate [Example 757] |
| 100 to 500 | 2-((1R)-1-{[(4-chlorophenyl)sulfonyl]-2,5-difluoroanilino}ethyl)-5-fluorobenzyl 3-fluorobenzylcarbamate [Example 764] |
| 100 to 500 | N-{3-[2-(1-{[(4-chlorophenyl)sulfonyl]-2,5-difluoroanilino}ethyl)phenoxy]propyl}-2-phenylcyclopropanecarboxamide [Example 789] |
| 100 to 500 | N-{3-[2-(1-{[(4-chlorophenyl)sulfonyl]-2,5-difluoroanilino}ethyl)phenoxy]propyl}-N-methyl-3-nitrobenzamide [Example 737] |

| Compound | IC50 [nM] |
| --- | --- |
| CN(CCCOc1ccccc1CN(c1cc(F)ccc1F)S(=O)(=O)c1ccc(Cl)cc1)C(=O)c1ccc(-c2ccccc2)cc1 [Example 752, N-{3-[2-({[(4-chlorophenyl)sulfonyl]-2,5-difluoroanilino}methyl)phenoxy]propyl}-N-methyl[1,1′-biphenyl]-4-carboxamide] | 100 to 500 |

Same assay, conditions: transfected H4 cells stably expressing APP; approximately 16 hours incubation; amyloid β in medium by ELISA; Table B; read-out: ACTIVITY (IC50, inhibition of amyloid β production)

| Compound | IC50 [nM] |
| --- | --- |
| CN1CCCCC1CCOc1ccccc1CN(c1ccccc1)S(=O)(=O)c1ccc(Cl)cc1 (stereo not shown) [Example 276, 4-Chloro-N-{2-[2-(1-methyl-2-piperidinyl)ethoxy]benzyl}-N-phenylbenzenesulfonamide Hydrochloride] | 25 to 50 |
| O=S(=O)(c1ccc(Cl)cc1)N(Cc1ccc2ccccc2c1OCCCN1CCCCC1)c1cc(F)ccc1F [Example 272, 4-Chloro-N-(2,5-difluorophenyl)-N-({1-[3-(1-piperidinyl)propoxy]-2-naphthylmethyl)benzenesulfonamide Hydrochloride] | 25 to 50 |
| CC(C)(C)OC(=O)N1CCN(CCCOc2ccccc2CN(c2ccccc2)S(=O)(=O)c2ccc(Cl)cc2)CC1 [Example 288, Tert-butyl 4-{3-[2-({[(4 chlorophenyl)sulfonyl}anilino}methyl)phenoxy]propyl}-1-piperazinecarboxylate] | 25 to 50 |
| C[C@H](c1ccc(F)cc1CCS(=O)(=O)CCC(=O)O)N(c1cc(F)ccc1F)S(=O)(=O)c1ccc(Cl)cc1 [Example 475, 3-({2-[2-((1R)-1-{[(4-chloro-phenyl)sulfonyl]-2,5-difluoroanilino}ethyl)-5-fluorophenyl]ethyl}sulfonyl)propanoic Acid] | 100 to 500 |

Same assay, conditions: transfected H4 cells stably expressing APP; approximately 16 hours incubation; amyloid β in medium by ELISA; read-out: ACTIVITY (IC50, inhibition of amyloid β production)

| IC50 [nM] | Compound |
| --- | --- |
| > 500 | 3-((4R)-4-{[(4-chlorophenyl)sulfonyl]-2,5-difluoroanilino}-7-fluoro-1,2,3,4-tetrahydro-1-naphthalenyl)propanoic acid [Example 1007] |
| 100 to 500 | N-{3-[2-(1-{[(4-chlorophenyl)sulfonyl]-2,5-difluoroanilino}ethyl)phenoxy]propyl}-2,3,4,5 tetrafluorobenzamide [Example 863] |

| Compound | IC50 [nM] |
| --- | --- |
| CN(CCCOc1ccccc1CN(c1cc(F)ccc1F)S(=O)(=O)c1ccc(Cl)cc1)C(=O)c1cc([N+](=O)[O-])cc([N+](=O)[O-])c1 [Example 958, N-{3-[2-({[(4-chlorophenyl)sulfonyl]-2,5-difluoroanilino}methyl)phenoxy]propyl}-N-methyl-3,5-dinitrobenzamide] | > 500 |
